Experimental data reported in PubChem BioAssay (NCI).
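Grown in 96-well plates, cells were treated for 48 hours with each compound at five concentrations. Insufficient inhibition: endpoint recorded as highest concentration tested. At the TGI there is no net growth.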

Assays:
Test in all cases: inhibition of tumour cell growth, NCI panel, 48 h
786-0 renal = test system: 786-0 renal
HOP-62 NSCLC = test system: HOP-62 NSCLC
NCI-H522 lung = test system: NCI-H522 lung
T-47D breast = test system: T-47D breast
MALME-3M melanoma = test system: MALME-3M melanoma
HS 578T breast = test system: HS 578T breast
HCT-15 colon = test system: HCT-15 colon
EKVX NSCLC = test system: EKVX NSCLC
SK-MEL-2 melanoma = test system: SK-MEL-2 melanoma
OVCAR-8 ovarian = test system: OVCAR-8 ovarian
A549 NSCLC = test system: A549 NSCLC
UO-31 renal = test system: UO-31 renal
TK-10 renal = test system: TK-10 renal
HCC-2998 colon = test system: HCC-2998 colon
MDA-N = test system: MDA-N
SK-OV-3 ovarian = test system: SK-OV-3 ovarian
KM12 colon = test system: KM12 colon
SF-268 CNS = test system: SF-268 CNS
RXF 393 renal = test system: RXF 393 renal
U251 CNS = test system: U251 CNS
UACC-257 melanoma = test system: UACC-257 melanoma
IGROV1 ovarian = test system: IGROV1 ovarian
MOLT-4 leukemia = test system: MOLT-4 leukemia
OVCAR-4 ovarian = test system: OVCAR-4 ovarian
HCT-116 colon = test system: HCT-116 colon
NCI-H226 lung = test system: NCI-H226 lung
CAKI-1 renal = test system: CAKI-1 renal
SF-539 CNS = test system: SF-539 CNS
SNB-19 CNS = test system: SNB-19 CNS
HOP-92 NSCLC = test system: HOP-92 NSCLC
A498 renal = test system: A498 renal
HT29 colon = test system: HT29 colon
SK-MEL-5 melanoma = test system: SK-MEL-5 melanoma
OVCAR-3 ovarian = test system: OVCAR-3 ovarian
M14 melanoma = test system: M14 melanoma
SW-620 colon = test system: SW-620 colon
MDA-MB-231 breast = test system: MDA-MB-231 breast
RPMI-8226 leukemia = test system: RPMI-8226 leukemia
MDA-MB-435 = test system: MDA-MB-435
COLO 205 colon = test system: COLO 205 colon
SNB-75 CNS = test system: SNB-75 CNS
CCRF-CEM leukemia = test system: CCRF-CEM leukemia
SK-MEL-28 melanoma = test system: SK-MEL-28 melanoma
ACHN renal = test system: ACHN renal
DU-145 prostate = test system: DU-145 prostate
HL-60(TB) leukemia = test system: HL-60(TB) leukemia
NCI-H23 lung = test system: NCI-H23 lung
NCI-H460 lung = test system: NCI-H460 lung
BT-549 breast = test system: BT-549 breast
MCF7 breast = test system: MCF7 breast
K-562 leukemia = test system: K-562 leukemia
LOX IMVI melanoma = test system: LOX IMVI melanoma
UACC-62 melanoma = test system: UACC-62 melanoma
SF-295 CNS = test system: SF-295 CNS
NCI/ADR-RES ovarian = test system: NCI/ADR-RES ovarian
SR leukemia = test system: SR leukemia
OVCAR-5 ovarian = test system: OVCAR-5 ovarian
PC-3 prostate = test system: PC-3 prostate
SN12C renal = test system: SN12C renal

SMILES: CC(=O)Nc1ccc(S(=O)(=O)/N=C2\C=CC(=O)c3ccccc32)cc1
- TGI (786-0 renal): 26.4 µM
- TGI (HOP-62 NSCLC): 22.8 µM
- TGI (NCI-H522 lung): 29 µM
- TGI (T-47D breast): > 83 µM
- TGI (MALME-3M melanoma): 9.66 µM
- TGI (HS 578T breast): 26.1 µM
- TGI (HCT-15 colon): 16.1 µM
- TGI (EKVX NSCLC): 22 µM
- TGI (SK-MEL-2 melanoma): 32.1 µM
- TGI (OVCAR-8 ovarian): 9.13 µM
- TGI (A549 NSCLC): 29.7 µM
- TGI (UO-31 renal): 20 µM
- TGI (TK-10 renal): 36.9 µM
- TGI (HCC-2998 colon): 10.7 µM
- TGI (MDA-N): 3.59 µM
- TGI (SK-OV-3 ovarian): 33.8 µM
- TGI (KM12 colon): 40.5 µM
- TGI (SF-268 CNS): 17.2 µM
- TGI (RXF 393 renal): 15.6 µM
- TGI (U251 CNS): 14.2 µM
- TGI (UACC-257 melanoma): 12.4 µM
- TGI (IGROV1 ovarian): 10.7 µM
- TGI (MOLT-4 leukemia): 1.25 µM
- TGI (OVCAR-4 ovarian): 8.6 µM
- TGI (HCT-116 colon): 22.8 µM
- TGI (NCI-H226 lung): 18.1 µM
- TGI (CAKI-1 renal): 35.7 µM
- TGI (SF-539 CNS): 15.6 µM
- TGI (SNB-19 CNS): 28.3 µM
- TGI (HOP-92 NSCLC): 21.7 µM
- TGI (A498 renal): 21.2 µM
- TGI (HT29 colon): 33.7 µM
- TGI (SK-MEL-5 melanoma): 8.7 µM
- TGI (OVCAR-3 ovarian): 10.3 µM
- TGI (M14 melanoma): 11.1 µM
- TGI (SW-620 colon): 47.6 µM
- TGI (MDA-MB-231 breast): 10.7 µM
- TGI (RPMI-8226 leukemia): 25.9 µM
- TGI (MDA-MB-435): 3.36 µM
- TGI (COLO 205 colon): 26.9 µM
- TGI (SNB-75 CNS): 14.1 µM
- TGI (CCRF-CEM leukemia): 27.7 µM
- TGI (SK-MEL-28 melanoma): 24.4 µM
- TGI (ACHN renal): 16.4 µM
- TGI (DU-145 prostate): > 57.2 µM
- TGI (HL-60(TB) leukemia): 11.2 µM
- TGI (NCI-H23 lung): 13.3 µM
- TGI (NCI-H460 lung): 28.5 µM
- TGI (BT-549 breast): 25.3 µM
- TGI (MCF7 breast): 12.2 µM
- TGI (K-562 leukemia): 9.13 µM
- TGI (LOX IMVI melanoma): 15.2 µM
- TGI (UACC-62 melanoma): 12.2 µM
- TGI (SF-295 CNS): 15.1 µM
- TGI (NCI/ADR-RES ovarian): 22.9 µM
- TGI (SR leukemia): 11.8 µM
- TGI (OVCAR-5 ovarian): 20.6 µM
- TGI (PC-3 prostate): 15.4 µM
- TGI (SN12C renal): 11.9 µM

SMILES: NC(=O)c1ccc(NCC2=CC(=O)C=CC2=O)cc1
- TGI (786-0 renal): 38.5 µM
- TGI (HOP-62 NSCLC): > 100 µM
- TGI (NCI-H522 lung): 47.5 µM
- TGI (T-47D breast): 68.9 µM
- TGI (MALME-3M melanoma): 36.6 µM
- TGI (HS 578T breast): 75.2 µM
- TGI (HCT-15 colon): 38.3 µM
- TGI (EKVX NSCLC): 34.3 µM
- TGI (SK-MEL-2 melanoma): 39.8 µM
- TGI (OVCAR-8 ovarian): 50.7 µM
- TGI (A549 NSCLC): > 100 µM
- TGI (UO-31 renal): 31.8 µM
- TGI (TK-10 renal): 32.7 µM
- TGI (HCC-2998 colon): > 100 µM
- TGI (MDA-N): 31.8 µM
- TGI (SK-OV-3 ovarian): > 100 µM
- TGI (KM12 colon): > 100 µM
- TGI (SF-268 CNS): 50.9 µM
- TGI (RXF 393 renal): 41 µM
- TGI (U251 CNS): 45.1 µM
- TGI (UACC-257 melanoma): 43.1 µM
- TGI (IGROV1 ovarian): 44.7 µM
- TGI (MOLT-4 leukemia): 67.9 µM
- TGI (OVCAR-4 ovarian): 42.4 µM
- TGI (HCT-116 colon): 36.1 µM
- TGI (NCI-H226 lung): > 100 µM
- TGI (CAKI-1 renal): 34.2 µM
- TGI (SF-539 CNS): 32.9 µM
- TGI (SNB-19 CNS): > 100 µM
- TGI (HOP-92 NSCLC): 40.7 µM
- TGI (A498 renal): > 100 µM
- TGI (HT29 colon): 47.7 µM
- TGI (SK-MEL-5 melanoma): 30.2 µM
- TGI (OVCAR-3 ovarian): 31 µM
- TGI (M14 melanoma): 31.3 µM
- TGI (SW-620 colon): 44 µM
- TGI (MDA-MB-231 breast): 37.5 µM
- TGI (RPMI-8226 leukemia): 54.6 µM
- TGI (MDA-MB-435): 32.1 µM
- TGI (COLO 205 colon): 36.2 µM
- TGI (SNB-75 CNS): 36.2 µM
- TGI (CCRF-CEM leukemia): 50.8 µM
- TGI (SK-MEL-28 melanoma): 36.9 µM
- TGI (ACHN renal): 31.6 µM
- TGI (DU-145 prostate): > 100 µM
- TGI (HL-60(TB) leukemia): 30.3 µM
- TGI (NCI-H23 lung): 51.7 µM
- TGI (NCI-H460 lung): > 100 µM
- TGI (BT-549 breast): 36.2 µM
- TGI (MCF7 breast): 59.1 µM
- TGI (K-562 leukemia): 49.1 µM
- TGI (LOX IMVI melanoma): 32.5 µM
- TGI (UACC-62 melanoma): 35.6 µM
- TGI (SF-295 CNS): > 100 µM
- TGI (NCI/ADR-RES ovarian): 71.4 µM
- TGI (SR leukemia): 56.4 µM
- TGI (OVCAR-5 ovarian): 52.9 µM
- TGI (PC-3 prostate): 32.7 µM
- TGI (SN12C renal): 41.3 µM
